Earlier results as cited in patent US20140283166A1, “CREATION AND TRANSMISSION OF MEGALOCI” (Monsanto Technology, LLC, priority 2013, published 2014).
Where two headings read alike, the source gives them in different places.

System: Arabidopsis

Structure (SMILES): COc1cccc(C(N)=O)c1 [3-methoxybenzamide]
- effect on genetic distance around centromeres (2 mM): increase the genetic distance around centromeres

Structure (SMILES): Nc1ncn([C@H]2C[C@H](O)[C@@H](CO)O2)c(=O)n1 [5-aza-2′-deoxycytidine]
- effect on genetic distance around centromeres (25 or 100 mg/L): increase the genetic distance around centromeres

Structure (SMILES): CCN(N=O)C(N)=O [N-nitroso-N-ethylurea]
- effect on genetic distance around centromeres (100 μM): increase the genetic distance around centromeres

Structure (SMILES): Cc1c(N)nc([C@H](CC(N)=O)NC[C@H](N)C(N)=O)nc1C(=O)N[C@H](C(=O)N[C@H](C)[C@@H](O)[C@H](C)C(=O)N[C@H](C(=O)NCCC1=N[C@@H](c2nc(C(=O)NCCCCN=C(N)N)cs2)CS1)[C@@H](C)O)[C@@H](O[C@@H]1O[C@@H](CO)[C@@H](O)[C@H](O)[C@@H]1O[C@H]1O[C@H](CO)[C@@H](O)[C@H](OC(N)=O)[C@@H]1O)c1cnc[nH]1 [Zeocin]
- effect on genetic distance around centromeres (1 μg/ml): increase the genetic distance around centromeres

Structure (SMILES): N.N.[Cl][Pt][Cl] [cis-diamminedichloroplatinum]
- effect on genetic distance around centromeres (20 μg/ml): increase the genetic distance around centromeres

Structure (SMILES): CCOS(C)(=O)=O [methanesulfonic acid ethyl ester]
- effect on genetic distance around centromeres (0.05%): increase the genetic distance around centromeres

Structure (SMILES): COS(C)(=O)=O [methanesulfonic acid methyl ester]
- effect on genetic distance around centromeres (75 parts per million): increase the genetic distance around centromeres

Structure (SMILES): CO[C@@]12[C@H](COC(N)=O)C3=C(C(=O)C(C)=C(N)C3=O)N1C[C@@H]1N[C@@H]12 [mitomycin C]
- effect on genetic distance around centromeres (10 mg/L): increase the genetic distance around centromeres

Structure (SMILES): CCCC(=O)O [n-butyric acid]
- effect on genetic distance around centromeres (20 μM): increase the genetic distance around centromeres

Structure (SMILES): CC(/C=C/C(=O)NO)=C\[C@@H](C)C(=O)c1ccc(N(C)C)cc1 [trichostatin A]
- effect on genetic distance around centromeres (10 μM): increase the genetic distance around centromeres
